Results reported in PubChem BioAssay (NCI).
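Values below derive from 48-hour exposures of cells grown in 96-well plates, with endpoints linearly interpolated between the two concentrations bracketing the appropriate inhibition level. GI50 = concentration required for 50% inhibition of growth. Definition used: TGI = concentration required for complete inhibition of growth.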

Experiments:
Experiment in all cases: NCI tumour cell line growth inhibition, 48 h
SF-268 CNS = system: SF-268 CNS
SF-295 CNS = system: SF-295 CNS
A498 renal = system: A498 renal
M14 melanoma = system: M14 melanoma
OVCAR-3 ovarian = system: OVCAR-3 ovarian
786-0 renal = system: 786-0 renal
U251 CNS = system: U251 CNS
RPMI-8226 leukemia = system: RPMI-8226 leukemia
T-47D breast = system: T-47D breast
SK-MEL-5 melanoma = system: SK-MEL-5 melanoma

Row | Compound | GI50 (SF-268 CNS) | TGI (SF-268 CNS) | GI50 (SF-295 CNS) | TGI (SF-295 CNS) | GI50 (A498 renal) | TGI (A498 renal) | GI50 (M14 melanoma) | TGI (M14 melanoma) | GI50 (OVCAR-3 ovarian) | TGI (OVCAR-3 ovarian) | GI50 (786-0 renal) | TGI (786-0 renal) | GI50 (U251 CNS) | TGI (U251 CNS) | GI50 (RPMI-8226 leukemia) | TGI (RPMI-8226 leukemia) | GI50 (T-47D breast) | TGI (T-47D breast) | GI50 (SK-MEL-5 melanoma) | TGI (SK-MEL-5 melanoma)
1 | CCOC(=O)c1c(C)n2c(=O)cc(C)c3c(O)c(O)cc1c32 | 5.88 µM | > 100 µM | 10.3 µM | > 100 µM | 27.4 µM | > 100 µM | 53.3 µM | > 100 µM | 1.42 µM | 9.94 µM | 8.83 µM | > 100 µM | 4.68 µM | 30.5 µM | 1.92 µM | 15.1 µM | 9.26 µM | > 100 µM | 4.67 µM | 24.1 µM
2 | NC1CCC(Nc2nc(NCc3ccc(-c4cccs4)nc3)c3ncn(C4CCCC4)c3n2)CC1 (stereo not drawn) | 0.0188 µM | 1.08 µM | 0.0819 µM | 0.699 µM | 0.0725 µM | 0.225 µM | 0.0258 µM | 0.337 µM | 0.0492 µM | 0.731 µM | 0.122 µM | 1.12 µM | 0.0327 µM | 0.434 µM | 0.0227 µM | 0.137 µM | 0.033 µM | 0.699 µM | 0.28 µM | 1.28 µM
3 | CC(=O)c1cc(C(=O)c2ccc3c(c2)Sc2ccccc2N3)c2c(C)cc(C)cn12 | 0.533 µM | > 46.3 µM | 0.187 µM | 0.94 µM | 0.0765 µM | 0.686 µM | 0.253 µM | > 100 µM | 0.222 µM | 0.596 µM | 0.465 µM | > 21.5 µM | 0.396 µM | > 100 µM | 0.361 µM | > 27.9 µM | 12.8 µM | > 100 µM | 0.402 µM | 2.13 µM
4 | Cl.Fc1c[c-]c(-c2ccccn2)c(F)c1.[Pt].c1ccc(P(c2ccccc2)C([PH+](c2ccccc2)c2ccccc2)[PH+](c2ccccc2)c2ccccc2)cc1 | 3.22 µM | 25.1 µM | 3.46 µM | 14.7 µM | 2.59 µM | 7.47 µM | 3.13 µM | 53 µM | 2.68 µM | 8.06 µM | 3.34 µM | 20.6 µM | 3.23 µM | 13.6 µM | 1.68 µM | 5.51 µM | 2.25 µM | 8.5 µM | 2.08 µM | 4.53 µM
5 | CCOC(=O)n1cc(C2=C(c3cn(C)c4ccccc34)COC2=O)c2ccccc21 | 1.02 µM | 62.9 µM | 0.0464 µM | 11 µM | 0.0391 µM | 0.644 µM | 0.0478 µM | > 100 µM | 0.0391 µM | 0.277 µM | 0.268 µM | 15.8 µM | 0.274 µM | 22.1 µM | 0.143 µM |  | 0.338 µM | > 100 µM | 0.0359 µM | 0.393 µM
6 | COC(=O)[C@]12CC[C@@H](C)[C@H](C)[C@@H]1C1=CC[C@@H]3[C@@]4(C)C(C=O)=C[C@@](C)(COC(C)=O)C4=CC[C@@]3(C)[C@]1(C)CC2 | 4.38 µM | 17 µM | 2.98 µM | 11.9 µM | 10.8 µM | 24 µM | 5.27 µM | 22.4 µM | 3.54 µM | 12.2 µM | 3.5 µM | 15 µM | 3.37 µM | 13.9 µM | 2 µM | 5.7 µM | 3.79 µM | 27.3 µM | 10.5 µM | 22.6 µM
7 | CN(C)c1ccc(N=C2C=CC(=[N+](C)C)C=C2)cc1 | 11 µM | 68.1 µM | 4.62 µM | 22.1 µM | 2.7 µM | > 100 µM | 17.7 µM | 81.4 µM | 4.99 µM | 17.7 µM | 30 µM | > 100 µM | 3.65 µM | 15.4 µM | 3.2 µM | 11.4 µM | 4.37 µM | 21.2 µM | 3.26 µM | 11.8 µM
8 | Cn1cc(C2=C(c3cn(C)c4c([N+](=O)[O-])cccc34)C(=O)NC2=O)c2ccccc21 | > 25 µM | > 25 µM | > 25 µM | > 25 µM | > 25 µM | > 25 µM | > 25 µM | > 25 µM | > 25 µM | > 25 µM | > 25 µM | > 25 µM | > 25 µM | > 25 µM | > 25 µM | > 25 µM | > 25 µM | > 25 µM | > 25 µM | > 25 µM
9 | Cc1ccccc1-n1ncc(C(=O)c2ccccc2)c1N | > 25 µM | > 25 µM | > 25 µM | > 25 µM | > 25 µM | > 25 µM | > 25 µM | > 25 µM | > 25 µM | > 25 µM | > 25 µM | > 25 µM | > 25 µM | > 25 µM | > 25 µM | > 25 µM | > 25 µM | > 25 µM | > 25 µM | > 25 µM
10 | COc1ccc2c(c1)[nH]c(=O)c1c3cc(OC)ccc3cn21 | < 0.0154 µM | 1.44 µM | < 0.01 µM | 0.18 µM | < 0.0104 µM | 1.35 µM | < 0.01 µM | 1.34 µM | < 0.01 µM | 0.0204 µM | 0.0453 µM | 1.56 µM | < 0.01 µM | 1.23 µM | 0.016 µM | 0.0874 µM | 1.03 µM | 3.24 µM | < 0.0128 µM | 0.116 µM
11 | Clc1cccc(Cl)c1C1CSc2ccccc2N=C1c1ccccc1 (stereo not drawn) | 3.07 µM | 11.2 µM | 13.6 µM | 31.7 µM | 13.1 µM | 26.6 µM | 8.44 µM | 23.1 µM | 3.92 µM | 13.4 µM | 10.7 µM | 23 µM | 2.11 µM | 4.54 µM | 2.46 µM | 7.1 µM | 8.39 µM | 34.5 µM | 4.74 µM | 18.1 µM
12 | C[C@H](Nc1ncnc2nc[nH]c12)c1cc2ccc(F)cc2nc1-c1ccccn1 | > 100 µM | > 100 µM | 18.8 µM | > 100 µM | 1.02 µM | 10.7 µM | > 100 µM | > 100 µM | 34.3 µM | > 100 µM | 14.3 µM | > 100 µM | > 100 µM | > 100 µM | > 100 µM | > 100 µM | 17.2 µM | 99.5 µM | 91.2 µM | > 100 µM
13 | CC(C)(C)C(=O)OCOP(=O)(OCOC(=O)C(C)(C)C)C1CC(O)N(O)C1=O (stereo not drawn) | 3.54 µM | > 100 µM | 15.7 µM | > 100 µM | 4.36 µM | 47.3 µM | 8.44 µM | > 100 µM | 9.79 µM | > 100 µM | 3.68 µM | > 100 µM | 3.58 µM | 44.1 µM | 2.88 µM | 14.6 µM | 5.9 µM | 89.7 µM | 21.5 µM | > 100 µM
14 | COc1ccc(C(SCC(N)C(=O)O)(c2ccccc2)c2ccccc2)cc1 (stereo not drawn) | 0.0877 µM | 71.5 µM | 0.0948 µM | > 100 µM | 20.8 µM | > 84.6 µM | 0.0309 µM | 0.126 µM | 0.0677 µM | 0.503 µM | 0.209 µM |  | 0.0497 µM | > 57 µM | 0.0419 µM | > 56.5 µM | 0.409 µM | > 100 µM | 0.0623 µM | 19.7 µM
15 | c1cc2[nH]ncc2cc1-c1nc2ccc3[nH]ncc3c2c2c1CCCC2 | 2.31 µM | 14 µM | 1.84 µM | 7.58 µM | 0.273 µM | 1.82 µM | 0.523 µM | 10.8 µM | 1.78 µM | 7.58 µM | 2.1 µM | 11.3 µM | 2.66 µM | 15.5 µM | 0.799 µM | 4.9 µM | 2.02 µM | 12.3 µM | 1.67 µM | 3.92 µM
